From ChEMBL document CHEMBL3885881, “DrugMatrix”

Species: Rattus norvegicus
Test: DrugMatrix - Regimen: Daily Repeat
Type: toxicity, organism-based, Sprague-Dawley
Set-up: regimen Daily Repeat, gender Male, age 6-8 weeks
Details: in vivo, po, route oral GAVAGE, vehicle 100 % WATER; for ABSOLUTE BASOPHIL / ABSOLUTE EOSINOPHIL / ABSOLUTE LYMPHOCYTE / ABSOLUTE MONOCYTE / ABSOLUTE SEGMENTED NEUTROPHIL / BASOPHIL / EOSINOPHIL / ERYTHROCYTE COUNT / HEMATOCRIT / HEMOGLOBIN / LEUKOCYTE COUNT / LYMPHOCYTE / MEAN CORPUSCULAR HEMOGLOBIN / MEAN CORPUSCULAR HEMOGLOBIN CONCENTRATION / MEAN CORPUSCULAR VOLUME / MONOCYTE / NEUTROPHIL / NUCLEATED RED BLOOD CELLS / PLATELET COUNT: tissue Blood; for ALANINE AMINOTRANSFERASE / ALBUMIN / ALKALINE PHOSPHATASE / ASPARTATE AMINOTRANSFERASE / BLOOD UREA NITROGEN / CARBON DIOXIDE / CHLORIDE / CHOLESTEROL / CREATINE PHOSPHOKINASE / CREATININE / GLUCOSE / LACTATE DEHYDROGENASE / LIPASE / PHOSPHORUS / POTASSIUM / SODIUM / TOTAL BILIRUBIN / TOTAL PROTEIN / URIC ACID: tissue Plasma
[1] = 8 mg/kg, 120 h, dose level Low, time 5 day
[2] = 100 mg/kg, 72 h, dose level High, time 3 day
[3] = 100 mg/kg, 120 h, dose level High, time 5 day

CCN(C(C)=O)c1cccc(-c2ccnc3c(C#N)cnn23)c1 [ZALEPLON]
ABSOLUTE BASOPHIL [1]: 0 CELLS/uL | ABSOLUTE EOSINOPHIL [1]: 56.67 CELLS/uL | ABSOLUTE LYMPHOCYTE [1]: 12514.33 CELLS/uL | ABSOLUTE MONOCYTE [1]: 39.33 CELLS/uL | ABSOLUTE SEGMENTED NEUTROPHIL [1]: 1223 CELLS/uL | BASOPHIL [1]: 0% | EOSINOPHIL [1]: 0.33% | ERYTHROCYTE COUNT [1]: 5.65 x10E6/uL | HEMATOCRIT [1]: 36.27% | HEMOGLOBIN [1]: 14.43 G/DL | LEUKOCYTE COUNT [1]: 13.83 x10E3/uL | LYMPHOCYTE [1]: 90.67% | MEAN CORPUSCULAR HEMOGLOBIN [1]: 25.57 pg | MEAN CORPUSCULAR HEMOGLOBIN CONCENTRATION [1]: 39.8 G/DL | MEAN CORPUSCULAR VOLUME [1]: 64.17 fL | MONOCYTE [1]: 0.33% | NEUTROPHIL [1]: 8.67% | NUCLEATED RED BLOOD CELLS [1]: 0.33 /100WBC | PLATELET COUNT [1]: 1230.33 x10E3/uL | ALANINE AMINOTRANSFERASE [1]: 55.33 u/L | ALBUMIN [1]: 4.17 G/DL | ALKALINE PHOSPHATASE [1]: 388.67 u/L | ASPARTATE AMINOTRANSFERASE [1]: 80.67 u/L | BLOOD UREA NITROGEN [1]: 14.33 mg/dL | CARBON DIOXIDE [1]: 31.67 mmol/L | CHLORIDE [1]: 101.67 MEQ/L | CHOLESTEROL [1]: 66.33 mg/dL | CREATINE PHOSPHOKINASE [1]: 267.33 u/L | CREATININE [1]: 0.15 mg/dL | GLUCOSE [1]: 126.67 mg/dL | LACTATE DEHYDROGENASE [1]: 359 u/L | LIPASE [1]: 11.33 u/L | PHOSPHORUS [1]: 11.67 mg/dL | POTASSIUM [1]: 6.04 MEQ/L | SODIUM [1]: 144.43 MEQ/L | TOTAL BILIRUBIN [1]: 0.17 mg/dL | TOTAL PROTEIN [1]: 6 G/DL | URIC ACID [1]: 1.4 mg/dL | ABSOLUTE BASOPHIL [2]: 0 CELLS/uL | ABSOLUTE EOSINOPHIL [2]: 0 CELLS/uL | ABSOLUTE LYMPHOCYTE [2]: 12984 CELLS/uL | ABSOLUTE MONOCYTE [2]: 96.67 CELLS/uL | ABSOLUTE SEGMENTED NEUTROPHIL [2]: 1352.67 CELLS/uL | BASOPHIL [2]: 0% | EOSINOPHIL [2]: 0% | ERYTHROCYTE COUNT [2]: 5.72 x10E6/uL | HEMATOCRIT [2]: 36.9% | HEMOGLOBIN [2]: 14 G/DL | LEUKOCYTE COUNT [2]: 14.43 x10E3/uL | LYMPHOCYTE [2]: 90% | MEAN CORPUSCULAR HEMOGLOBIN [2]: 24.5 pg | MEAN CORPUSCULAR HEMOGLOBIN CONCENTRATION [2]: 37.97 G/DL | MEAN CORPUSCULAR VOLUME [2]: 64.5 fL | MONOCYTE [2]: 0.67% | NEUTROPHIL [2]: 9.33% | NUCLEATED RED BLOOD CELLS [2]: 0 /100WBC | PLATELET COUNT [2]: 1335.67 x10E3/uL | ALANINE AMINOTRANSFERASE [2]: 82.33 u/L | ALBUMIN [2]: 4.13 G/DL | ALKALINE PHOSPHATASE [2]: 449.67 u/L | ASPARTATE AMINOTRANSFERASE [2]: 80 u/L | BLOOD UREA NITROGEN [2]: 11.67 mg/dL | CARBON DIOXIDE [2]: 33.33 mmol/L | CHLORIDE [2]: 106 MEQ/L | CHOLESTEROL [2]: 71 mg/dL | CREATINE PHOSPHOKINASE [2]: 245.67 u/L | CREATININE [2]: 0.2 mg/dL | GLUCOSE [2]: 139 mg/dL | LACTATE DEHYDROGENASE [2]: 132.33 u/L | LIPASE [2]: 10 u/L | PHOSPHORUS [2]: 11.2 mg/dL | POTASSIUM [2]: 5.9 MEQ/L | SODIUM [2]: 144.73 MEQ/L | TOTAL BILIRUBIN [2]: 0.17 mg/dL | TOTAL PROTEIN [2]: 5.93 G/DL | URIC ACID [2]: 1.4 mg/dL | ABSOLUTE BASOPHIL [3]: 0 CELLS/uL | ABSOLUTE EOSINOPHIL [3]: 0 CELLS/uL | ABSOLUTE LYMPHOCYTE [3]: 12362.67 CELLS/uL | ABSOLUTE MONOCYTE [3]: 101.33 CELLS/uL | ABSOLUTE SEGMENTED NEUTROPHIL [3]: 1236 CELLS/uL | BASOPHIL [3]: 0% | EOSINOPHIL [3]: 0% | ERYTHROCYTE COUNT [3]: 6.29 x10E6/uL | HEMATOCRIT [3]: 38.53% | HEMOGLOBIN [3]: 15 G/DL | LEUKOCYTE COUNT [3]: 13.7 x10E3/uL | LYMPHOCYTE [3]: 89.33% | MEAN CORPUSCULAR HEMOGLOBIN [3]: 23.83 pg | MEAN CORPUSCULAR HEMOGLOBIN CONCENTRATION [3]: 38.93 G/DL | MEAN CORPUSCULAR VOLUME [3]: 61.3 fL | MONOCYTE [3]: 0.67% | NEUTROPHIL [3]: 10% | NUCLEATED RED BLOOD CELLS [3]: 0 /100WBC | PLATELET COUNT [3]: 1219.33 x10E3/uL | ALANINE AMINOTRANSFERASE [3]: 61.67 u/L | ALBUMIN [3]: 4.3 G/DL | ALKALINE PHOSPHATASE [3]: 331.33 u/L | ASPARTATE AMINOTRANSFERASE [3]: 91 u/L | BLOOD UREA NITROGEN [3]: 14.67 mg/dL | CARBON DIOXIDE [3]: 28.67 mmol/L | CHLORIDE [3]: 102 MEQ/L | CHOLESTEROL [3]: 83.33 mg/dL | CREATINE PHOSPHOKINASE [3]: 520 u/L | CREATININE [3]: 0.17 mg/dL | GLUCOSE [3]: 157 mg/dL | LACTATE DEHYDROGENASE [3]: 238.67 u/L | LIPASE [3]: 11 u/L | PHOSPHORUS [3]: 11.7 mg/dL | POTASSIUM [3]: 6.45 MEQ/L | SODIUM [3]: 144.67 MEQ/L | TOTAL BILIRUBIN [3]: 0.2 mg/dL | TOTAL PROTEIN [3]: 6.53 G/DL | URIC ACID [3]: 2.47 mg/dL
